ChEMBL document CHEMBL1133435, “Syntheses and evaluation of naphthalenyl- and chromenyl-pyrrolyl-benzoic acids as potent and selective retinoic acid receptor alpha agonists” (Bioorg Med Chem Lett, 2000)

Key:
[1] = target: T1, Retinoic acid receptor alpha (Homo sapiens) (UniProt P10276); assay: Binding affinity for Retinoic acid receptor alpha relative to ATRA; Not detectable
T1 sequence (whole entry): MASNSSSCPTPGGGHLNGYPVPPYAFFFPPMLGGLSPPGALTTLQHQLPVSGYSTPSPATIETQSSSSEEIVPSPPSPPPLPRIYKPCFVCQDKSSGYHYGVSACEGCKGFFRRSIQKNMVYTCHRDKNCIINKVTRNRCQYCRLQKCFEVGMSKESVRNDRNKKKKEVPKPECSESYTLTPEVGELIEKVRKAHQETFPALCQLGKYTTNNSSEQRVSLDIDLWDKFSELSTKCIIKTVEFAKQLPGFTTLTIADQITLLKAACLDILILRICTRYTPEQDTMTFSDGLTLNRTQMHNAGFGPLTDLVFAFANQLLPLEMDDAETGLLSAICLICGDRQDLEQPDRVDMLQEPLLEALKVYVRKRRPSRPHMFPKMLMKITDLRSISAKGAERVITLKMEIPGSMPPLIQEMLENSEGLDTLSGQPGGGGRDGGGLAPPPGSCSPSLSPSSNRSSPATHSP

[2] = target: T2, Retinoic acid receptor beta (Homo sapiens) (UniProt P10826); assay: Relative transcriptional activation in CV-1 cells expressing RAR beta receptor compared to ATRA; Not detectable; format: functional, cell-based; conditions: Cercopithecidae
T2 sequence (whole entry): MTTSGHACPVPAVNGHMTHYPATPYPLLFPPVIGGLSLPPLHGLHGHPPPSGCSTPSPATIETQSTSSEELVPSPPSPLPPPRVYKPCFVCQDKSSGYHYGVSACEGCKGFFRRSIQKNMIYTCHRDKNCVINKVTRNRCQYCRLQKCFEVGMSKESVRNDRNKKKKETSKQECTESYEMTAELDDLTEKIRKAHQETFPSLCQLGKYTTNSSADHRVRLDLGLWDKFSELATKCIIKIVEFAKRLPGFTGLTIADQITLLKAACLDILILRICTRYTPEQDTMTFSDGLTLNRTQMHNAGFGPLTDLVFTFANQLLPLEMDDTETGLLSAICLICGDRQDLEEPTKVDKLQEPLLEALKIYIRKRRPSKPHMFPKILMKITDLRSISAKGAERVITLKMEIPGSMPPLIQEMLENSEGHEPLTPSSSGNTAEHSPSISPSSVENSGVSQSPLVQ

[3] = target: T1, Retinoic acid receptor alpha (Homo sapiens); assay: Relative transcriptional activation in CV-1 cells expressing RAR alpha receptor compared to ATRA; format: functional, cell-based; conditions: Cercopithecidae
[4] = target: T3, Retinoic acid receptor gamma (Homo sapiens) (UniProt P13631); assay: Binding affinity for Retinoic acid receptor gamma relative to ATRA
T3 sequence (whole entry): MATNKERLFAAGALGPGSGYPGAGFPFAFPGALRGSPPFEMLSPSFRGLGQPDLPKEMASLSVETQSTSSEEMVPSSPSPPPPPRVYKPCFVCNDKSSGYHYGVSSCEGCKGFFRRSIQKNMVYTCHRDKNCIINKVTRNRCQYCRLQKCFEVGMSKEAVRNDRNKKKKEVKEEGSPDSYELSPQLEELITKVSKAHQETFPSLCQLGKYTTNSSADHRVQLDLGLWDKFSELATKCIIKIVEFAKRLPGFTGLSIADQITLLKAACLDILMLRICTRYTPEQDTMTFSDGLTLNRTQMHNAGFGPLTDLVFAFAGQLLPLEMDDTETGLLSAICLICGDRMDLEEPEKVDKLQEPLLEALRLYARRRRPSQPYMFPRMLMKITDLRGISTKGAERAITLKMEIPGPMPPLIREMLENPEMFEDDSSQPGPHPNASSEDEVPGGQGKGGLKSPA

[5] = target: T2, Retinoic acid receptor beta (Homo sapiens); assay: Binding affinity for Retinoic acid receptor beta relative to ATRA
[6] = target: T3, Retinoic acid receptor gamma (Homo sapiens); assay: Relative transcriptional activation in CV-1 cells expressing RAR gamma receptor compared to ATRA; Not detectable; format: functional, cell-based; conditions: Cercopithecidae
[7] = target: T3, Retinoic acid receptor gamma (Homo sapiens); assay: Relative transcriptional activation in CV-1 cells expressing RAR gamma receptor compared to ATRA; format: functional, cell-based; conditions: Cercopithecidae
[8] = target: T2, Retinoic acid receptor beta (Homo sapiens); assay: Relative transcriptional activation in CV-1 cells expressing RAR beta receptor compared to ATRA; format: functional, cell-based; conditions: Cercopithecidae
[9] = target: T1, Retinoic acid receptor alpha (Homo sapiens); assay: Binding affinity for Retinoic acid receptor alpha relative to ATRA
[10] = target: T2, Retinoic acid receptor beta (Homo sapiens); conditions: Cercopithecidae; CV-1
Description: Transcriptional activation in CV-1 cells expressing RAR beta receptor

[11] = target: T1, Retinoic acid receptor alpha (Homo sapiens); conditions: Cercopithecidae; CV-1
Description: Transcriptional activation in CV-1 cells expressing RAR alpha receptor

HL-60 = assay: Induction of HL-60 cell differentiation; format: functional; conditions: Homo sapiens
[12] = target: T1, Retinoic acid receptor alpha (Homo sapiens); assay: Relative transcriptional activation in CV-1 cells expressing RAR alpha receptor compared to ATRA; Not detectable; format: functional, cell-based; conditions: Cercopithecidae

Row | Relative IC50 [1] [µM] | Relative EC30 [2] [µM] | Relative EC30 [3] [µM] | Relative IC50 [4] [µM] | Relative IC50 [5] [µM] | Relative EC30 [6] [µM] | Relative EC30 [7] [µM] | Relative EC30 [8] [µM] | Relative IC50 [9] [µM] | EC30 [10] [µM] | EC30 [11] [µM] | Relative EC30 [12] [µM] | Structure (SMILES) | EC30 (HL-60) [µM]
1 | > 1 | > 10 | 0.09 | > 1 | > 1 | > 10 |  |  |  |  |  |  | Cc1cc(C)c2ccc(-c3ccc(-c4ccc(C(=O)O)cc4)[nH]3)cc2c1 | 
2 |  |  | 0.0045 | > 1 | > 1 |  | 5.25 | 1.03 | 0.05 |  |  |  | Cc1cccc2c1C=C(c1ccc(-c3ccc(C(=O)O)cc3)[nH]1)CO2 | 
3 |  |  | 0.02 | 0.227 | 0.049 |  | 0.66 | 0.011 | 0.0027 |  |  |  | CC(/C=C/C=C(\C)c1ccc2c(C)ccc(C)c2c1)=C\C(=O)O | 
4 |  |  | > 10 | > 1 | > 1 | > 10 |  | 0.88 | 0.0014 |  |  |  | O=C(O)c1ccc(-c2ccc(-c3ccc4cccc(-c5ccccc5)c4c3)[nH]2)cc1 | 

Further lines, the compound ahead of its results:

Row | Structure (SMILES) | Relative IC50 [1] [µM] | Relative EC30 [2] [µM] | Relative EC30 [3] [µM] | Relative IC50 [4] [µM] | Relative IC50 [5] [µM] | Relative EC30 [6] [µM] | Relative EC30 [7] [µM] | Relative EC30 [8] [µM] | Relative IC50 [9] [µM] | EC30 [10] [µM] | EC30 [11] [µM] | Relative EC30 [12] [µM] | EC30 (HL-60) [µM]
5 | CC1=C(/C=C/C(C)=C/C=C/C(C)=C/C(=O)O)C(C)(C)CCC1 |  |  |  |  |  |  |  |  |  | 0.00069 | 0.0011 |  | 
6 | Cc1cccc2ccc(-c3ccc(-c4ccc(C(=O)O)cc4)[nH]3)cc12 |  | > 10 | 0.049 | > 1 | > 1 | > 10 |  |  | 0.015 |  |  |  | 
7 | CC(C)c1cccc2ccc(-c3ccc(-c4ccc(C(=O)O)cc4)[nH]3)cc12 |  |  | 0.0011 | 0.91 | > 1 |  | 0.088 | 0.078 | < 0.001 |  |  |  | 0.1
8 | CC(/C=C/C=C(\C)c1ccc2c(c1)C(C)(C)CCC2(C)C)=C\C(=O)O |  |  | 0.00027 | 0.00067 | 0.00034 |  | 0.00024 | 0.0002 | 0.00049 |  |  |  | 
9 | Cc1ccc(C)c2c1C=C(c1ccc(-c3ccc(C(=O)O)cc3)[nH]1)CO2 |  |  | 0.0018 | > 1 | > 1 |  | 3.6 | 0.24 | 0.0097 |  |  |  | 
10 | Cc1ccc(C)c2cc(-c3ccc(-c4ccc(C(=O)O)cc4)[nH]3)ccc12 |  |  | 0.0028 | > 1 | > 1 |  | 2.2 | 0.25 | 0.024 |  |  |  | 
11 | Cc1c(C)c(C)c2cc(-c3ccc(-c4ccc(C(=O)O)cc4)[nH]3)ccc2c1C | > 1 | > 10 |  | > 1 | > 1 | > 10 |  |  |  |  |  | > 10 | 
